From patent publication US20230137849A1, “USE OF A COMPOUND OF THE DIURETICS CLASS FOR TREATING CANCER” (AZELEAD, priority 2017, published 2023)
Counter-ions that a name gives are not always drawn. Like-named read-outs stand apart in the source and are kept apart here. Values belong to the compound of their own block, whether it stands above or below them.

Legend:
MDA-MB-231 cells = assay: Cytotoxicity potentiation test: MTT cell viability of MDA-MB-231 cells, doxorubicin +/- althiazide; type: cell-based, human; settings: Homo sapiens, MDA-MB-231, 24 h, 24 h, 1% O2
Procedure: The cell cultures are carried out on human breast cancer epithelial cell lines MDA-MB-231 (HTB-26™), resulting from metastases present in a pleural effusion of a patient with a mammary adenocarcinoma. This line is used as a triple negative cancer cell model (no expression of ER-type nuclear estrogen receptors, nuclear progesterone receptors or overexpression of the oncogene encoding HER2 protein (Human Epidermal Growth factor Receptor-2).
The cell viability is determined via the IC50 index, measured by the MTT technique (2-(4,5-dimethyl-2-thiazolyl)-3,5-diphenyl-2H-tetrazolium bromide) (Mosmann, 1983). This colorimetric test is based on the reduction of yellow tetrazolium salts into insoluble purple formazan crystals in aqueous solution. The spectrophotometric measurement of the absorbance at 570 nm is directly proportional to the number of viable cells
The cells were seeded in 96-well plates at a density of 25,000 cells per well. After 24 h of culture at 37° C., 5% CO2 and 1% O2, the medium was renewed and supplemented with increasing doses of doxorubicin+/−althiazide. Cells were incubated for 24 h at 37° C., 5% CO2 and 1% O2. The MDA-MB-231 cells were washed and then incubated for 1 hour at 37° C. with 100 μl of a 0.5 mg/ml MTT solution prepared in culture medium. The formazan crystals were dissolved in […] and the absorbance measured at 570 nm using the Tecan Sunrise spectrophotometer. The IC50 was determined using the Graphpad Prism 5.0 software. The treatments were carried out in triplicate and the manipulation was carried out 5 times.
The tests are carried out in cell culture in 96-well plates, on the cell line MDA-MB-231. The MDA-MB-231 cells are seeded in 96-well plates at a density of 10,000 cells and incubated 24 h at 37° C., 5% CO2 and 1% O2. The medium is then renewed and added with increasing concentrations of doxorubicin+/−100 μM althiazide. The cells are incubated for an additional 24 hours at 37° C., 5% CO2 and 1% O2. Treatments were made in triplicas and the experiment was repeated 5 times.
A cell viability test is then performed according to the method described in Materials and methods.
Results are normalized to the control condition (FIG. 12)

[1] = test system: hematopoietic stem cells CD41:GFP accumulated in the CHT; type: in vivo; settings: for reduction of the number of HSCs accumulated in CHT: 24 h; for invasion of CHT by CD41:GFP cells / number of cells having colonized CHT, in words: thiazide compounds test, 10 μM or 25 μM, FIG. 9
Source text: A method for determining whether a molecule is capable of treating cancer in the pre-metastatic state has been described in international application WO 2011/007259. This method consists in isolating molecules capable of inhibiting the emergence of hematopoietic stem cells from the floor of the aorta without cell division, but by endothelial-to-hematopoietic transition. This emergence involves the loss of cell polarity of emerging cells, the loss of cellular junctions with these neighboring cells and the acquisition of migratory properties. This model is used because it mimics each stage of the epithelial-mesenchymal transition, the first stage of cancer metastasis. The endothelial-to-hematopoietic transition takes place in a region of the embryo called Aorta-Gonad-Mesonephros (AGM).
(§1) The colonization of hematopoietic tissues by hematopoietic stem cells mimics the appearance and/or progression of a metastatic cancerous tumor since it involves intravasation, extravasation, or the migration of HSCs following a gradient of SDF-1. The first colonized tissue is caudal hematopoietic tissue (CHT).
In order to evaluate the inhibition of the endothelial-to-hematopoietic transition, transgenic CD41:GFP (green fluorescent protein) embryos are used. HSCs express GFP under the control of the CD41 promoter, which allows them to be monitored in vivo under a fluorescence microscope. The read-out is the number of hematopoietic stem cells CD41:GFP accumulated in the AGM (mimicking the initiation of the metastatic process) and/or in the CHT of the zebrafish embryo (mimicking the progression of the metastatic process). The accumulation of CD41:GFP cells in CHT implies that each cell has made an endothelial-to-hematopoietic transition, intravasation, extravasation at the CHT level, has settled in a stromal niche and has proliferated.
The Tg transgenic zebrafish line (CD41:GFP) is maintained in accordance with the protocols described by the Ethical Committee for Animal Experimentation. The fish are kept at a temperature of 28° C. and their development stage is determined as before. The molecules are tested on zebrafish embryos at the 25 hpf stage. The embryos are decorticated and transferred to a 96-well plate (1 embryo/well) containing the test compounds in a final volume of 100 μl of the embryonic growth medium (60 μg salt for 1 ml H2O). […] The treated embryos are incubated for 24 hours in an incubator at 28° C.
The embryos are imaged with a plate reader after being anesthetized with 0.16% tricaine (ethyl-3-aminobenzoate). A quantification of the number of fluorescent cells (CD41:GFP) accumulated in the CHT is carried out.
Althiazide was tested on the zebrafish embryo according to the method previously described in the international application WO 2011/007259. This method consists in isolating molecules capable of inhibiting the emergence of hematopoietic stem cells from the floor of the aorta without cell division, but by endothelial-to-hematopoietic transition. This emergence involves the loss of cell polarity of emerging cells, the loss of cellular junctions with these neighboring cells and the acquisition of migratory properties. This model is used, in the context of the invention, because it mimics each of the stages of the epithelial-to-mesenchymal transition, the first stage of the cancerous metastasis. The endothelial-to-hematopoietic transition takes place in a region of the embryo called Aorto-Gonado-Mesonephros (AGM).
as §1, with “metastatic” for “metastatic cancerous”, “SDF1.” for “SDF-1.”, “(CHT). This physiological process is considered, in the context of the invention, as representative of the appearance and/or progression of a metastatic tumor. […]” for “(CHT).”

[2] = Stability test of enantiomers: racemization followed by SFC chiral purity analysis; type: physicochemical
Procedure: The analysis of the chiral purity of the products to be tested was carried out by a supercritical fluid separation (SFC) technique on a Berger prep chromatograph, marketed by Thar Instruments. The mobile phase of the separation consists of a mixture of methanol added. 0.01% acetic acid and CO2 in a 20/80 ratio. The stationary phase chosen is a Chiralpak IC […] column, 250 mm by 20 mm, marketed by sigma aldrich. The injection rate is 50 ml per minute, at 40° C. under a pressure of 100 bar. The product to be analyzed is dissolved in methanol supplemented with 0.01% acetic acid, with a concentration of 1 mg/ml. 10 μl of this product is injected. The detector is a UV detector with a wavelength greater than 275 nm.
(§2) The stability tests of the enantiomers were performed by comparing the racemization and the degradation of the stored samples either at room temperature without protection against light, or under controlled temperature at 5° C. and protected from light.
(§3) The stored products are analyzed regularly (T=0, 1 h, 2 h, 3 h, 6 h, 24 h) to follow the evolution of the racemization of enantiomers.
(§4) After separation by SFC acetonitrile version 2, 1.5 mg of EV-VZWOO 1-070-005 and 2.4 mg of EV-VZWOO 1-070-006 are removed for stability testing.
(§5) Sample EV-VZWOO 1-070-005 is stored at a temperature of 5° C. under light protection conditions. Sample EV-VZWOO 1-070-006 is stored at room temperature on the bench without protection against light.

[3] = Stability test of enantiomers: degradation followed by UHPLC reverse phase purity; type: physicochemical
Procedure: The analysis of the reverse phase purity of the products to be tested was carried out by an ultra-high pressure liquid chromatography (UHPLC) reverse phase chromatography technique on a Waters UPLC2 liquid chromatograph, marketed by Waters. The mobile phase of the separation varies during the method according to the protocol of Table 1.
as §2, §3, §4, §5

[4] = 10 μM (FIG. 3; b188 prints 10 μl), vs reference embryos treated with DMSO
[5] = 0 h, stored at 5° C. protected from light
[6] = 1 h, stored at 5° C. protected from light
[7] = 2 h, stored at 5° C. protected from light
[8] = 3 h, stored at 5° C. protected from light
[9] = 6 h, stored at 5° C. protected from light
[10] = 24 h, stored at 5° C. protected from light
[11] = 0 h, stored at room temperature without protection against light
[12] = 1 h, stored at room temperature without protection against light
[13] = 2 h, stored at room temperature without protection against light
[14] = 3 h, stored at room temperature without protection against light
[15] = 6 h, stored at room temperature without protection against light
[16] = 24 h, stored at room temperature without protection against light

SMILES: COc1cccc2c1C(=O)c1c(O)c3c(c(O)c1C2=O)C[C@@](O)(C(=O)CO)C[C@@H]3O[C@H]1C[C@H](N)[C@H](O)[C@H](C)O1 [doxorubicin, reference compound]
IC50 (MDA-MB-231 cells; doxorubicin + 100 μM althiazide): 3.32 µM
IC50 (MDA-MB-231 cells; doxorubicin alone): 6.02 µM

SMILES: NNc1nncc2ccccc12 [Hydralazine-hydrochloride, reference compound]
reduction of the number of HSCs accumulated in CHT [1, 4]: do not cause a decrease

SFC AZ(A) (%) [2, 5]: 100%
SFC AZ(B) (%) [2, 5]: 0%
SFC AZ(A) (%) [2, 6]: 100%
SFC AZ(B) (%) [2, 6]: 0%
SFC AZ(A) (%) [2, 7]: 100%
SFC AZ(B) (%) [2, 7]: 0%
SFC AZ(A) (%) [2, 8]: 100%
SFC AZ(B) (%) [2, 8]: 0%
SFC AZ(A) (%) [2, 9]: 100%
SFC AZ(B) (%) [2, 9]: 0%
SFC AZ(A) (%) [2, 10]: 100%
SFC AZ(B) (%) [2, 10]: 0%
UHPLC Pureté en phase inverse [3, 5]: 99.9%
UHPLC Pureté en phase inverse [3, 10]: 94.9%
SMILES: C=CCSC[C@@H]1Nc2cc(Cl)c(S(N)(=O)=O)cc2S(=O)(=O)N1 [AZ(A)]
invasion of CHT by CD41:GFP cells / number of cells having colonized CHT, in words [1]: further reduce

SMILES: Cc1ccccc1N1C(=O)c2cc(S(N)(=O)=O)c(Cl)cc2NC1C (stereo not shown) [Metolazone, reference compound]
reduction of the number of HSCs accumulated in CHT [1, 4]: do not cause a decrease

SMILES: C[N+]1(CCCCC[N+]2(C)CCCC2)CCCC1.O=C([O-])C(O)C(O)C(=O)O.O=C([O-])C(O)C(O)C(=O)O [Pentolinium-bitartrate, reference compound]
reduction of the number of HSCs accumulated in CHT [1, 4]: do not cause a decrease

SFC AZ(A) (%) [2, 11]: 0.6%
SFC AZ(B) (%) [2, 11]: 99.4%
SFC AZ(A) (%) [2, 12]: 1.2%
SFC AZ(B) (%) [2, 12]: 98.8%
SFC AZ(A) (%) [2, 13]: 1.2%
SFC AZ(B) (%) [2, 13]: 98.8%
SFC AZ(A) (%) [2, 14]: 1.7%
SFC AZ(B) (%) [2, 14]: 98.3%
SFC AZ(A) (%) [2, 15]: 3%
SFC AZ(B) (%) [2, 15]: 97%
SFC AZ(A) (%) [2, 16]: 9.7%
SFC AZ(B) (%) [2, 16]: 90.3%
UHPLC Pureté en phase inverse [3, 11]: 100%
UHPLC Pureté en phase inverse [3, 16]: 90.5%
SMILES: C=CCSC[C@H]1Nc2cc(Cl)c(S(N)(=O)=O)cc2S(=O)(=O)N1 [AZ(B)]
invasion of CHT by CD41:GFP cells / number of cells having colonized CHT, in words [1]: further reduce

SMILES: NS(=O)(=O)c1cc2c(cc1Cl)NCNS2(=O)=O [Hydrochlorothiazide, reference compound]
reduction of the number of HSCs accumulated in CHT ([1]; 10 µM): 20%

SMILES: NS(=O)(=O)c1cc(C2(O)NC(=O)c3ccccc32)ccc1Cl (stereo not shown) [Chlortalidone, reference compound]
reduction of the number of HSCs accumulated in CHT [1, 4]: do not cause a decrease
